{
  "source": "paper PMC7946776",
  "about": "(Journal of immunology (Baltimore, Md. : 1950), 2021)",
  "biological_target": "mouse Asah2 (Mus musculus, UniProt Q9JHE3)",
  "sequence (Q9JHE3 whole entry)": "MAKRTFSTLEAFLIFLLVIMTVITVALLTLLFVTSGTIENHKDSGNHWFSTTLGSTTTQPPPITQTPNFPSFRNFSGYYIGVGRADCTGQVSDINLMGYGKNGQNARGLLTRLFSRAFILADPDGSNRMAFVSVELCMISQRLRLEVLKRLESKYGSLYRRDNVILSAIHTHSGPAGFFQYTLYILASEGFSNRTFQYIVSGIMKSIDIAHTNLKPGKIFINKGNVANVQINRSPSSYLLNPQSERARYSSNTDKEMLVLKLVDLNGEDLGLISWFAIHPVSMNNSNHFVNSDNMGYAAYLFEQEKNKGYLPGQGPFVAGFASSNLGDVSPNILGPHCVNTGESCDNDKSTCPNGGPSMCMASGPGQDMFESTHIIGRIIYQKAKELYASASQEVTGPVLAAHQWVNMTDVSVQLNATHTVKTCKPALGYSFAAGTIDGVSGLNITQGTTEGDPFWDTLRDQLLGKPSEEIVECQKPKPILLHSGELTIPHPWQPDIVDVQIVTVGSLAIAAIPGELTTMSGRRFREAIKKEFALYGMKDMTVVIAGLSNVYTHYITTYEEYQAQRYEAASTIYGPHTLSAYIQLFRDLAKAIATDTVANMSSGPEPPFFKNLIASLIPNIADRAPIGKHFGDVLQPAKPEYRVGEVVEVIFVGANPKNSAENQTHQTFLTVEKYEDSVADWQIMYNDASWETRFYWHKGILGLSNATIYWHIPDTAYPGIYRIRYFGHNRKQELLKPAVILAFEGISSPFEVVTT",
  "test": "fluorogenic ceramidase activity assay",
  "type": "biochemical",
  "data": [
    {"smiles": "O=c1nc(Nc2cccc(Cl)c2)oc2cc(Cl)oc(=O)c12", "note": "[NC06, 7-chloro-2-(3-chloroanilino)pyrano[3,4-e][1,3]oxazine-4,5-dione]", "values": [
      {"measurement": "IC50", "value": 30.2, "unit": "µM"}
    ]}
  ]
}
